Laboratory results as given in publication PMC9981512, “Thin film hydration versus modified spraying technique to fabricate intranasal spanlastic nanovesicles for rasagiline mesylate brain delivery: Characterization, statistical optimization, and in vivo pharmacokinetic evaluation” (Drug Delivery and Translational Research, 2022).
Structures can show the parent of a compound that is named as a salt. Where two headings read alike, the source gives them in different places.

How the values were obtained:
[1] = after oral administration; cited from earlier work
[2] = In vitro release of RM, modified Franz diffusion cells with dialysis membrane, simulated nasal fluid; format: physicochemical; settings: simulated nasal fluid pH 6.5, 37 °C, 50 rpm
Procedure: The in vitro release of RM from the optimized systems was investigated using modified Franz diffusion cells (Franz diffusion cell with dialysis membrane). In a few words, an exact volume of each optimized system was placed in the donor cell, and the dialysis process was performed against 50 mL of simulated nasal fluid (SNF; CaCl2.2H2O 0.32 mg/mL, NaCl 7.45 mg/mL, KCl 1.29 mg/mL, pH 6.5) maintained at 37 °C while stirring at 50 rpm. Three milliliter sample was withdrawn at each time interval (0.25, 0.5, 1, 1.5, 2, 3, 4, 6, 8, 10 and 12 h) and replaced with equal volumes of drug free SNF [39]. The amount of RM in each sample was measured spectrophotometrically at λmax 265 nm. The in vitro release profiles of the two optimized systems were compared to RM aqueous solution profile. Furthermore, the mean dissolution time (MDT) was calculated for both systems following Eq. (2):2 MDT=∑j=1ntj∗ΔMj/∑j=1nΔMj where j is the sample number, tj* is the midpoint time between t and tj-1 that can be calculated by (t + tj-1/2), n is the number of release samples, and ∆Mj is the additional amount released between t and tj-1. The higher the MDT value, the slower the drug release rate.

[3] = In vivo pharmacokinetics and brain targeting in rats, LC-MS/MS of brain homogenate and plasma; settings: rat, RM in brain, intravenous, 0.05 mg/kg/day
Procedure: In order to evaluate the in vivo performance of the selected MST 2, an in vivo pharmacokinetics study was performed to measure the bioavailability and brain-targeting ability of the selected system after intranasal administration into rats. The study protocol was previously approved by the research ethics committee for the experimental and clinical studies at the Faculty of Pharmacy Cairo University with approval code (PI 2680). Briefly, forty-eight rats were divided into two groups (n = 24), and each group was divided into eight subgroups (n = 3). The average weight of the rats was 180 gm, and they were subjected to 12-h cycles of light/darkness. They were kept in cages with free access to food and water. The relative humidity was maintained in range 40–60%, and the temperature ranged from 20 to 25 °C during the experiment.
The first group was administered the optimized MST 2 equivalent to 0.05 mg/kg/day of RM [44] intranasally (IN) using a polyethylene tube which was attached to Hamilton syringe, whereas the second group was administered the same dose of an intravenous (IV) RM aqueous solution through the tail vein. Blood samples were collected from the rats at specified time intervals (0.25, 0.5, 1, 1.5, 2, 4, 8, and 12 h) via the puncture of lateral vesicular vein, centrifuged at 4000 rpm for 15 min, and separated to obtain the plasma that was then frozen at –80 °C until further investigations. Additionally, six rats (three of each subgroup) were anaesthetized and sacrificed to separate the brain tissues at 0.5, 1, 2, 4, and 8 h. The brain tissues were washed twice with normal saline and then weighed. An equal weight of normal saline was added to each brain sample, which was then homogenized (Heidolph DIAX 900, Heidolph Instruments, Schwabach, Germany) and kept frozen at – 80 °C until analysis. RM levels in plasma samples and brain homogenates were measured by a validated liquid chromatography-mass spectrometry (LC–MS/MS) method.
Calibration curves of RM in plasma and brain homogenate were constructed using clonazepam as internal standard (IS). Briefly, specific volumes of RM stock solution were mixed with one hundred microliter of clonazepam stock solution (100 ng/mL) and then spiked into 0.5 mL plasma or brain homogenate to obtain the following concentrations: 0.1, 1, 10, 20, 100, and 1000 ng/mL. For RM extraction from the samples, 0.5 mL of plasma samples or brain homogenates was mixed with 100 µL of clonazepam solution as IS and 4 mL of ethyl acetate to precipitate the proteins followed by vortexing (Stuart SA8, BiBBY Sterlin Ltd., UK) for 5 min and centrifugation for 10 min at 3000 rpm. The supernatant was transferred to a new tube to evaporate the organic solvent under vacuum using a vacuum concentrator (Eppendorf 5301, Hamburg, Germany). The obtained dry residue was reconstituted in 0.5 mL of the mobile phase (acetonitrile: 0.1% formic acid solution in water at a ratio (80:20 v/v)) after then, 9 µL of the obtained solution was injected into (LC–MS/MS) for analysis.
The analysis of RM in plasma samples and brain homogenates was done by LC–MS/MS (Shimadzu CBM20A, Japan) fitted with mass spectrometer AB Sciex 4000 (Sciex Instruments, USA) and auto-sampler (Shimadzu SIL20A, Japan). The mass spectrometer was equipped with turbo ion spray having a positive polarity with temperature set at 500 °C. The samples were analyzed by injecting aliquots of 9 µL, and the mobile phase flow rate was adjusted at 0.8 mL/min. The transition was from 172.036 to 117.000 m/z for RM and from 316.024 to 270 m/z in case of clonazepam. The analysis of the obtained results was done using Analyst software (version 1.6.3, Sciex Instruments, Framingham, USA).
Non-compartmental pharmacokinetic model was applied to analyze RM plasma and brain levels using Kinetica software (version 2000, Arlington, USA). […]

mean dissolution time (MDT) [2]: 0.333 ± 0.0991 h
time of complete release of RM [2]: 4 h
AUC(0-inf) [3]: 28 ± 1.84 ng·h/mL
Cmax [3]: 15.8 ± 0.34 ng/mL
Tmax [3]: 0.5 h
k el ([3]; read-out: K (hr^−1) elimination rate constant (converted)): 0.377 h⁻¹
MRT ([3]; read-out: MRT (hr) mean residence time): 2.27 ± 0.71 h
half-life ([3]; read-out: T1/2 half (converted)): 1.83 ± 0.24 h
Compound: C#CCN[C@@H]1CCc2ccccc21 [RM, Rasagiline mesylate]
half-life [1]: 1.5 to 3.5 h
time to reach maximum concentration in plasma [1]: ≤ 1 h
